From ChEMBL document CHEMBL1201861, “Genomics of Drug Sensitity in Cancer screening data, Wellcome Trust Sanger Institute”
pIC50: −log10 of the molar value.

Experiments:
Test in all cases: cells
COLO-792 = assay type: functional, cell-based, Homo sapiens; conditions: Homo sapiens, COLO-792
Description: SANGER: Inhibition of human COLO-792 cell growth in a cell viability assay.

CTB-1 = assay type: functional, cell-based; conditions: Homo sapiens
Description: SANGER: Inhibition of human CTB-1 cell growth in a cell viability assay.

DBTRG-05MG = assay type: functional, cell-based, Homo sapiens; conditions: Homo sapiens, DBTRG-05MG;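 note: cell viability assay measuring growth inhibition of human DBTRG-05MG cells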
Description: SANGER: Inhibition of human DBTRG-05MG cell growth in a cell viability assay.

DJM-1 = assay type: functional, cell-based, Homo sapiens; conditions: Homo sapiens, DJM-1;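 note: growth inhibition of human DJM-1 cells, read out by a cell viability assay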
Description: SANGER: Inhibition of human DJM-1 cell growth in a cell viability assay.

Daoy = assay type: functional, cell-based, Homo sapiens; conditions: Homo sapiens, Daoy;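 note: daoy cell growth inhibition, read out as cell viability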
Description: SANGER: Inhibition of human Daoy cell growth in a cell viability assay.

EGI-1 = assay type: functional, cell-based, Homo sapiens; conditions: Homo sapiens, EGI-1;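 note: cell viability readout used to gauge growth inhibition of EGI-1 cells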
Description: SANGER: Inhibition of human EGI-1 cell growth in a cell viability assay.

ES5 = assay type: functional, cell-based, Homo sapiens; conditions: Homo sapiens, ES5;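 note: growth inhibition of human ES5 cells, read out by a cell viability assay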
ETK-1 = assay type: functional, cell-based, Homo sapiens; conditions: Homo sapiens, ETK-1;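 note: growth inhibition of human ETK-1 cells, read out with a cell viability assay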
Description: SANGER: Inhibition of human ETK-1 cell growth in a cell viability assay.

G-402 = assay type: functional, cell-based, Homo sapiens; conditions: Homo sapiens, G-402
Description: SANGER: Inhibition of human G-402 cell growth in a cell viability assay.

GB-1 = assay type: functional, cell-based, Homo sapiens; conditions: Homo sapiens, GB-1;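 note: growth of GB-1 cells judged by a viability assay, IC50 marks the concentration inhibiting growth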
Description: SANGER: Inhibition of human GB-1 cell growth in a cell viability assay.

GCT = assay type: functional, cell-based, Homo sapiens; conditions: Homo sapiens, GCT;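 note: GCT cell line proliferation inhibition, read out with a cell viability assay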
Description: SANGER: Inhibition of human GCT cell growth in a cell viability assay.

GR-ST = assay type: functional, cell-based; conditions: Homo sapiens
Description: SANGER: Inhibition of human GR-ST cell growth in a cell viability assay.

HuTu80 = assay type: functional, cell-based, Homo sapiens, HUTU-80; conditions: Homo sapiens, HuTu80;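 note: growth inhibition of HuTu80 human cells, determined with a cell viability readout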
Description: SANGER: Inhibition of human HUTU-80 cell growth in a cell viability assay.

HuO-3N1 = assay type: functional, cell-based, Homo sapiens; conditions: Homo sapiens, HuO-3N1;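 note: cell viability readout used to measure how strongly compounds suppress proliferation of human HuO-3N1 cells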
Description: SANGER: Inhibition of human HuO-3N1 cell growth in a cell viability assay.

JAR = assay type: functional, cell-based, Homo sapiens; conditions: Homo sapiens, JAR;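 note: growth inhibition of human JAR cells determined with a cell viability assay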
Description: SANGER: Inhibition of human JAR cell growth in a cell viability assay.

KARPAS-45 = assay type: functional, cell-based; conditions: Homo sapiens;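 note: inhibition of cell line growth, read out through a viability assay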
Description: SANGER: Inhibition of human KARPAS-45 cell growth in a cell viability assay.

KG-1 = assay type: functional, cell-based; conditions: Homo sapiens;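 note: growth inhibition of KG-1 cells, read out by a cell viability assay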
KM-H2 = assay type: functional, cell-based; conditions: Homo sapiens;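 note: growth inhibition of KM-H2 cells, read out by a cell viability assay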
Description: SANGER: Inhibition of human KM-H2 cell growth in a cell viability assay.

KURAMOCHI = assay type: functional, cell-based; conditions: Homo sapiens;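 note: growth inhibition of KURAMOCHI cells, read out with a cell viability assay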
Description: SANGER: Inhibition of human KURAMOCHI cell growth in a cell viability assay.

KYSE-410 = assay type: functional, cell-based, Homo sapiens; conditions: Homo sapiens, KYSE-410;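 note: growth inhibition of KYSE-410 cells, measured through a cell viability readout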
Description: SANGER: Inhibition of human KYSE-410 cell growth in a cell viability assay.

LB831-BLC = assay type: functional, cell-based, Homo sapiens; conditions: Homo sapiens, LB831-BLC;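 note: growth inhibition of LB831-BLC cells, read out with a cell viability assay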
Description: SANGER: Inhibition of human LB831-BLC cell growth in a cell viability assay.

LC-2-ad = assay type: functional, cell-based, Homo sapiens; conditions: Homo sapiens, LC-2-ad;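 note: growth inhibition of human LC-2-ad cells, read out with a cell viability assay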
Description: SANGER: Inhibition of human LC-2-ad cell growth in a cell viability assay.

LN-405 = assay type: functional, cell-based, Homo sapiens; conditions: Homo sapiens, LN-405
Description: SANGER: Inhibition of human LN-405 cell growth in a cell viability assay.

LoVo = assay type: functional, cell-based; conditions: Homo sapiens;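 note: growth inhibition of human LoVo cells, read out with a cell viability assay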
Description: SANGER: Inhibition of human LoVo cell growth in a cell viability assay.

MC116 = assay type: functional, cell-based; conditions: Homo sapiens;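 note: growth inhibition of MC116 cells, read out with a cell viability assay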
Description: SANGER: Inhibition of human MC116 cell growth in a cell viability assay.

MOLT-16 = assay type: functional, cell-based; conditions: Homo sapiens;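 note: growth inhibition of human MOLT-16 cells, read out with a cell viability assay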
Description: SANGER: Inhibition of human MOLT-16 cell growth in a cell viability assay.

MSTO-211H = assay type: functional, cell-based, Homo sapiens; conditions: Homo sapiens, MSTO-211H
Description: SANGER: Inhibition of human MSTO-211H cell growth in a cell viability assay.

MV4-11 = assay type: functional, cell-based, MV-4-11; conditions: Homo sapiens;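 note: cell viability readout measuring growth inhibition of human MV-4-11 cells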
Description: SANGER: Inhibition of human MV-4-11 cell growth in a cell viability assay.

NB5 = assay type: functional, cell-based, Homo sapiens; conditions: Homo sapiens, NB5;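 note: growth inhibition of NB5 cells, read out as cell viability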
Description: SANGER: Inhibition of human NB5 cell growth in a cell viability assay.

NCI-H1092 = assay type: functional, cell-based; conditions: Homo sapiens;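 note: cell growth inhibition measured with a cell viability assay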
Description: SANGER: Inhibition of human NCI-H1092 cell growth in a cell viability assay.

NCI-H1650 = assay type: functional, cell-based, Homo sapiens; conditions: Homo sapiens, NCI-H1650;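 note: growth inhibition of human NCI-H1650 cells measured by a cell viability assay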
Description: SANGER: Inhibition of human NCI-H1650 cell growth in a cell viability assay.

NCI-H2342 = assay type: functional, cell-based; conditions: Homo sapiens;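 note: growth inhibition of the cancer cell line, determined with a cell viability assay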
Description: SANGER: Inhibition of human NCI-H2342 cell growth in a cell viability assay.

NCI-H526 = assay type: functional, cell-based; conditions: Homo sapiens;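 note: growth inhibition of the human NCI-H526 cell line, measured by a cell viability assay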
Description: SANGER: Inhibition of human NCI-H526 cell growth in a cell viability assay.

NOMO-1 = assay type: functional, cell-based; conditions: Homo sapiens;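 note: growth inhibition of human NOMO-1 cells measured by a cell viability assay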
OAW-28 = assay type: functional, cell-based, Homo sapiens; conditions: Homo sapiens, OAW-28;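 note: growth inhibition of OAW-28 cells, read out with a cell viability assay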
Description: SANGER: Inhibition of human OAW-28 cell growth in a cell viability assay.

RMG-I = assay type: functional, cell-based, Homo sapiens; conditions: Homo sapiens, RMG-I;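 note: growth inhibition of human RMG-I cells, read out with a cell viability assay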
Description: SANGER: Inhibition of human RMG-I cell growth in a cell viability assay.

RVH-421 = assay type: functional, cell-based, Homo sapiens; conditions: Homo sapiens, RVH-421
Description: SANGER: Inhibition of human RVH-421 cell growth in a cell viability assay.

SCC-15 = assay type: functional, cell-based, Homo sapiens; conditions: Homo sapiens, SCC-15;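 note: growth inhibition of SCC-15 cells, read out with a cell viability assay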
Description: SANGER: Inhibition of human SCC-15 cell growth in a cell viability assay.

SF-126 = assay type: functional, cell-based, Homo sapiens; conditions: Homo sapiens, SF-126;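 note: growth inhibition of human SF126 cells, read out with a cell viability assay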
Description: SANGER: Inhibition of human SF126 cell growth in a cell viability assay.

SK-MEL-24 = assay type: functional, cell-based; conditions: Homo sapiens;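 note: growth inhibition read out by a cell viability assay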
Description: SANGER: Inhibition of human SK-MEL-24 cell growth in a cell viability assay.

SW-620 = assay type: functional, cell-based, Homo sapiens; conditions: Homo sapiens, SW-620;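 note: growth inhibition of human SW-620 cells, measured by a cell viability assay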
Description: SANGER: Inhibition of human SW620 cell growth in a cell viability assay.

SW684 = assay type: functional, cell-based, Homo sapiens; conditions: Homo sapiens, SW684;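 note: growth inhibition of human SW684 cells, measured by a cell viability assay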
Description: SANGER: Inhibition of human SW684 cell growth in a cell viability assay.

SW 962 = assay type: functional, cell-based, Homo sapiens; conditions: Homo sapiens, SW 962;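 note: growth inhibition of human SW962 cells, read out by a cell viability assay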
Description: SANGER: Inhibition of human SW962 cell growth in a cell viability assay.

SiHa = assay type: functional, cell-based, Homo sapiens; conditions: Homo sapiens, SiHa;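 note: Viability-based readout of growth inhibition in SiHa cells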
Description: SANGER: Inhibition of human SiHa cell growth in a cell viability assay.

8305C = assay type: functional, cell-based, Homo sapiens; conditions: Homo sapiens, 8305C
Description: SANGER: Inhibition of human 8305C cell growth in a cell viability assay.

BB49-HNC = assay type: functional, cell-based, Homo sapiens; conditions: Homo sapiens, BB49-HNC;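 note: cell viability assay read-out, reported as inhibition of BB49-HNC cell growth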
Description: SANGER: Inhibition of human BB49-HNC cell growth in a cell viability assay.

BT-20 = assay type: functional, cell-based, Homo sapiens; conditions: Homo sapiens, BT-20;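 note: cell viability assay measuring suppression of growth in human BT-20 cells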
Description: SANGER: Inhibition of human BT-20 cell growth in a cell viability assay.

TE-6 = assay type: functional, cell-based, Homo sapiens; conditions: Homo sapiens, TE-6;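 note: growth inhibition of TE-6 cells, read out with a cell viability assay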
Description: SANGER: Inhibition of human TE-6 cell growth in a cell viability assay.

TGBC24TKB = assay type: functional, cell-based, Homo sapiens; conditions: Homo sapiens, TGBC24TKB;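 note: growth inhibition of human TGBC24TKB cells, read out with a cell viability assay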
Description: SANGER: Inhibition of human TGBC24TKB cell growth in a cell viability assay.

UACC-893 = assay type: functional, cell-based, Homo sapiens; conditions: Homo sapiens, UACC-893
Description: SANGER: Inhibition of human UACC-893 cell growth in a cell viability assay.

COLO-320-HSR = assay type: functional, cell-based; conditions: Homo sapiens;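 note: growth inhibition of COLO-320-HSR cells, determined with a cell viability assay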
Description: SANGER: Inhibition of human COLO-320-HSR cell growth in a cell viability assay.

D-247MG = assay type: functional, cell-based, Homo sapiens; conditions: Homo sapiens, D-247MG
Description: SANGER: Inhibition of human D-247MG cell growth in a cell viability assay.

NB7 = assay type: functional, cell-based; conditions: Homo sapiens;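 note: growth inhibition of NB7 cells, read out with a cell viability assay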
Description: SANGER: Inhibition of human NB7 cell growth in a cell viability assay.

Measured: pIC50

C[C@]1(O)C[C@@H](c2nc(-c3ccc4ccc(-c5ccccc5)nc4c3)c3c(N)nccn32)C1 [LINSITINIB]
5.76: LC-2-ad
5.82: TGBC24TKB
6.38: COLO-320-HSR
not listed: D-247MG | NB7
< 5.59: all other assays above

CCC(=O)N1CCN(c2ccc(-n3c(=O)ccc4cnc5ccc(-c6cnc7ccccc7c6)cc5c43)cc2C(F)(F)F)CC1 [TORIN1]
7.24: SW 962 | TGBC24TKB
7.16: MV4-11
6.17: TE-6
> 8.33: ETK-1
7.81: GB-1
7.57: MC116
7.62: KURAMOCHI
6.79: LB831-BLC
6.04: NCI-H526
7.58: GR-ST
6.11: KARPAS-45
7.02: NB5
6.94: JAR
6.88: COLO-320-HSR
< 5.92: D-247MG | DJM-1 | ES5 | KG-1 | KM-H2 | MSTO-211H | NB7 | NCI-H1092 | NCI-H1650 | SCC-15 | SW684
7.36: SF-126
7.79: MOLT-16
6.65: CTB-1
8.03: HuTu80
6.87: BB49-HNC
7.67: LC-2-ad
6.40: NOMO-1

Cc1cc(Nc2cc(N3CCN(C)CC3)nc(Sc3ccc(NC(=O)C4CC4)cc3)n2)n[nH]1 [TOZASERTIB]
7.11: MV4-11
5.87: MOLT-16
6.06: TGBC24TKB
6.07: MC116
6.02: SF-126
5.94: ETK-1
7.06: LC-2-ad
7.28: HuTu80
5.75: KURAMOCHI
5.78: NB5
not listed: COLO-792 | DBTRG-05MG | Daoy | EGI-1 | G-402 | GCT | HuO-3N1 | KYSE-410 | LN-405 | LoVo | NCI-H2342 | OAW-28 | RMG-I | RVH-421 | SK-MEL-24 | SW-620 | SiHa | 8305C | BT-20 | UACC-893
< 5.70: all other assays above
